Laboratory results from patent US10040781B2, “Tank-binding kinase inhibitor compounds” (Gilead Sciences, Inc., priority 2014, dated 2018).

What was measured:
IKKε = IKKε (Homo sapiens (Human), UniProt Q14164); experiment: IKKε TR-FRET enzymatic assay; format: biochemical; settings: read-out: IKKe IC50
TBK1 = TBK1 (Homo sapiens (Human), UniProt Q9UHD2); experiment: TBK1 TR-FRET enzymatic assay;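 further: phosphorylation of a biotinylated Ser/Thr peptide by purified full-length recombinant TBK1, read by TR-FRET after 240 min at 25 °C, IC50 is the geometric mean of at least four runs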
hJAK2 = hJAK2 (Homo sapiens (Human), UniProt O60674); experiment: hJAK2 LANCE TR-FRET enzymatic assay; format: biochemical; settings: read-out: JAK2 IC50
Chain of hJAK2 (O60674 whole entry): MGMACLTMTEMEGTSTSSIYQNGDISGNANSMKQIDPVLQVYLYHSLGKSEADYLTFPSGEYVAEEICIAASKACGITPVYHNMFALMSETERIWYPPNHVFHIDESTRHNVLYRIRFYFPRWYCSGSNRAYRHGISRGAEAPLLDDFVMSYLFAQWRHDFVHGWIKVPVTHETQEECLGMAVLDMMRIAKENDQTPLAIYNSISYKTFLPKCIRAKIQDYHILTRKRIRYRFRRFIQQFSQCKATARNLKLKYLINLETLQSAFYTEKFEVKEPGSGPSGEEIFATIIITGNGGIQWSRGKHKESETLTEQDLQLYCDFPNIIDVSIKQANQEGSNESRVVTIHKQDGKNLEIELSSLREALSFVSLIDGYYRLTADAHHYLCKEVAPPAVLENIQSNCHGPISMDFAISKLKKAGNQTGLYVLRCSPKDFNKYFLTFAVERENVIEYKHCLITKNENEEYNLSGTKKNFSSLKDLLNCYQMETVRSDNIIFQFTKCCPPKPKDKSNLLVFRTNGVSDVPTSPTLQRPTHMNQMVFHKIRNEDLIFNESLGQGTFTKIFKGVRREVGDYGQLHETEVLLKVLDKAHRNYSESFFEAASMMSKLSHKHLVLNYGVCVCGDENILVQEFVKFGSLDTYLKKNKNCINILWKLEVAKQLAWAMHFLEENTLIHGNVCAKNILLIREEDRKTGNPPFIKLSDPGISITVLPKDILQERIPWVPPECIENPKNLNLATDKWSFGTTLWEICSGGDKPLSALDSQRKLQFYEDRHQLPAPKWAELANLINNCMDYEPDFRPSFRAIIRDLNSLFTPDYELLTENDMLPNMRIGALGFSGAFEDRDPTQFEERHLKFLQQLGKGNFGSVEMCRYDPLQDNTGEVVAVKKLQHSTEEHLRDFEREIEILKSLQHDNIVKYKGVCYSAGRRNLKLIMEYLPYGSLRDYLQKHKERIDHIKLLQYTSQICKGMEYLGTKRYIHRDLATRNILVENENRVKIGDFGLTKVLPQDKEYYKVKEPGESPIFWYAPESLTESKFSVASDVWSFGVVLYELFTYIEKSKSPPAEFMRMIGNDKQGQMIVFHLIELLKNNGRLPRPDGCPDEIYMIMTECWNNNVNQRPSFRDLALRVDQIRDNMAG

Chain of IKKε (Q14164 whole entry): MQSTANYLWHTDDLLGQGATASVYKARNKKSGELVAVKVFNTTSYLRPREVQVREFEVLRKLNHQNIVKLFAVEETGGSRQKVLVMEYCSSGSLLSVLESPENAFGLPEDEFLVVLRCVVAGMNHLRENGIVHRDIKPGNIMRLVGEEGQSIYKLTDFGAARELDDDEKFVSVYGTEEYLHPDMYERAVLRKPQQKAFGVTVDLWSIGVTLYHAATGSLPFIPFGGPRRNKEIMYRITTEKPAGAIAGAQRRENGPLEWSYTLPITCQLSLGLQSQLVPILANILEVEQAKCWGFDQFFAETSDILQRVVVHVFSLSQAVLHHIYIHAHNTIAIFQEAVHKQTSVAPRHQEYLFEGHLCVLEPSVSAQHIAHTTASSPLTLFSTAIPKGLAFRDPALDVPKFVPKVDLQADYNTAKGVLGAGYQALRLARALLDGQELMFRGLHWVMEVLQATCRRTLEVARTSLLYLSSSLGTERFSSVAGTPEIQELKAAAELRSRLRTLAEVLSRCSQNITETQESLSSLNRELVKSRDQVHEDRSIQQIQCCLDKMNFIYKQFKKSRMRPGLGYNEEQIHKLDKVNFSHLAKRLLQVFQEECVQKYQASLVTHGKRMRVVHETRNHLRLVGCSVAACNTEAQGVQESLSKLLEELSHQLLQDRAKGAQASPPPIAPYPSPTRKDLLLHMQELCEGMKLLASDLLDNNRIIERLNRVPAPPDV
Chain of TBK1 (Q9UHD2 whole entry): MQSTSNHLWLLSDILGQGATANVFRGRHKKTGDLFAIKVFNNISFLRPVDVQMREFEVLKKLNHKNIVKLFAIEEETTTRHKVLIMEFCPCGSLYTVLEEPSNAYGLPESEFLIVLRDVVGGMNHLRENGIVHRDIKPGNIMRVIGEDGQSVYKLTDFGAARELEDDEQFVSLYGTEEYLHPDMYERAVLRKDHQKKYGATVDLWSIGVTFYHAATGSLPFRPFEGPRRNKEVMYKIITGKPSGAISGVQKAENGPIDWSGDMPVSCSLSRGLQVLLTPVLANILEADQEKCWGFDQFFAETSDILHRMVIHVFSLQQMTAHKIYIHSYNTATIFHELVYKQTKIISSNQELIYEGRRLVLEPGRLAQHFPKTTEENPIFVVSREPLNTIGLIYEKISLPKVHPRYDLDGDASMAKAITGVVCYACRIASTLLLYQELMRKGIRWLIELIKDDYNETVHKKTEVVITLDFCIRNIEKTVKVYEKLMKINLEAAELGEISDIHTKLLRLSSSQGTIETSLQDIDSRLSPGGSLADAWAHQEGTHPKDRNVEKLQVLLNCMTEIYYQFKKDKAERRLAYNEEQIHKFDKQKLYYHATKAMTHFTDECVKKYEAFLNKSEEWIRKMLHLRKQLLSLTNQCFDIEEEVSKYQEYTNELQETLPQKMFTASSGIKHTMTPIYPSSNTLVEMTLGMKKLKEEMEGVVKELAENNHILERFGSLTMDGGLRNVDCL

SMILES | IC50 (IKKε) [nM] | IC50 (TBK1) [nM] | IC50 (hJAK2) [nM]
C[C@H](O)C(=O)N1CC(F)C(Oc2ccc(-c3ncnc(Nc4ccc(N5CCN(C6COC6)CC5)cc4)n3)cc2C#N)C(C)(C)C1 (stereo partly drawn) [Example 180, 2-((5-fluoro-1-((S)-2-hydroxypropanoyl)-3,3-dimethylpiperidin-4-yl)oxy)-5-(4-((4-(4-(oxetan-3-yl)piperazin-1-yl)phenyl)amino)-1,3,5-triazin-2-yl)benzonitrile] | 17 | 11 | 317
C[C@H](O)C(=O)N1CC[C@H](Oc2ccc(-c3ncnc(Nc4ccc(N5CCN(C6COC6)CC5)cc4)n3)cc2C#N)C[C@@H]1C [Example 181, 2-(((2S,4S)-1-((S)-2-hydroxypropanoyl)-2-methylpiperidin-4-yl)oxy)-5-(4-((4-(4-(oxetan-3-yl)piperazin-1-yl)phenyl)amino)-1,3,5-triazin-2-yl)benzonitrile] | 20 | 10 | 432
C[C@@H](O)C(=O)N1CC[C@H](Oc2ccc(-c3ncnc(Nc4ccc(N5CCN(C6COC6)CC5)cc4)n3)cc2C#N)C[C@@H]1C [Example 182, 2-(((2S,4S)-1-((R)-2-hydroxypropanoyl)-2-methylpiperidin-4-yl)oxy)-5-(4-((4-(4-(oxetan-3-yl)piperazin-1-yl)phenyl)amino)-1,3,5-triazin-2-yl)benzonitrile] | 95 | 32 | 491
C[C@H](O)C(=O)N1CC[C@H](Oc2ccc(-c3ncnc(Nc4ccc(N5CCN(C6COC6)CC5)cc4)n3)cc2C#N)C[C@H]1C [Example 183, 2-(((2R,4S)-1-((S)-2-hydroxypropanoyl)-2-methylpiperidin-4-yl)oxy)-5-(4-((4-(4-(oxetan-3-yl)piperazin-1-yl)phenyl)amino)-1,3,5-triazin-2-yl)benzonitrile] | 120 | 50 | 593
C[C@@H]1C[C@H](Oc2ccc(-c3ncnc(Nc4ccc(N5CCN(C6COC6)CC5)cc4)n3)cc2C#N)CCN1C(=O)[C@@H](C)O [Example 186, 2-(((2R,4R)-1-((R)-2-hydroxypropanoyl)-2-methylpiperidin-4-yl)oxy)-5-(4-((4-(4-(oxetan-3-yl)piperazin-1-yl)phenyl)amino)-1,3,5-triazin-2-yl)benzonitrile] | 312 | 128 | ≥ 1000
C[C@H]1C[C@@H](Oc2ccc(-c3ncnc(Nc4ccc(N5CCN(C6COC6)CC5)cc4)n3)cc2C#N)CCN1C(=O)c1cnn[nH]1 [Example 188, 2-(((2S,4S)-2-methyl-1-(1H-1,2,3-triazole-5-carbonyl)piperidin-4-yl)oxy)-5-(4-((4-(4-(oxetan-3-yl)piperazin-1-yl)phenyl)amino)-1,3,5-triazin-2-yl)benzonitrile] | 5 | 5 | 224
N#Cc1cc(-c2ncnc(Nc3ccc(N4CCN(C5COC5)CC4)cc3)n2)ccc1OC1CNCC1(F)F (stereo not drawn) [Example 194, 2-((4,4-difluoropyrrolidin-3-yl)oxy)-5-(4-((4-(4-(oxetan-3-yl)piperazin-1-yl)phenyl)amino)-1,3,5-triazin-2-yl)benzonitrile] | 29 | 6 | 308
CS(=O)(=O)N1CC[C@@H](Oc2ccc(-c3ncnc(Nc4ccc(N5CCN(C6COC6)CC5)cc4)n3)cc2C#N)C1 [Example 197, (R)-2-((1-(methylsulfonyl)pyrrolidin-3-yl)oxy)-5-(4-((4-(4-(oxetan-3-yl)piperazin-1-yl)phenyl)amino)-1,3,5-triazin-2-yl)benzonitrile] | 79 | 26 | 173

The remaining compounds from weak to strong by IC50 (IKKε), led by results:

IC50 (IKKε) [nM] | IC50 (TBK1) [nM] | IC50 (hJAK2) [nM] | SMILES
277 | 103 | ≥ 1000 | C[C@@H]1C[C@@H](Oc2ccc(-c3ncnc(Nc4ccc(N5CCN(C6COC6)CC5)cc4)n3)cc2C#N)CCN1C(=O)[C@@H](C)O [Example 184, 2-(((2R,4S)-1-((R)-2-hydroxypropanoyl)-2-methylpiperidin-4-yl)oxy)-5-(4-((4-(4-(oxetan-3-yl)piperazin-1-yl)phenyl)amino)-1,3,5-triazin-2-yl)benzonitrile]
226 | 67 | ≥ 1000 | N#Cc1cc(-c2ncnc(Nc3ccc(N4CCN(C5COC5)CC4)cc3)n2)ccc1OC1CCN(C(=O)c2cc[nH]c2)CC1 [Example 191, 2-((1-(1H-pyrrole-3-carbonyl)piperidin-4-yl)oxy)-5-(4-((4-(4-(oxetan-3-yl)piperazin-1-yl)phenyl)amino)-1,3,5-triazin-2-yl)benzonitrile]
190 | 94 | ≥ 1000 | C[C@H](O)C(=O)N1CC[C@@H](Oc2ccc(-c3ncnc(Nc4ccc(N5CCN(C6COC6)CC5)cc4)n3)cc2C#N)C[C@H]1C [Example 185, 2-(((2R,4R)-1-((S)-2-hydroxypropanoyl)-2-methylpiperidin-4-yl)oxy)-5-(4-((4-(4-(oxetan-3-yl)piperazin-1-yl)phenyl)amino)-1,3,5-triazin-2-yl)benzonitrile]
68 | 10 | 265 | C[C@H](O)C(=O)N1CC(Oc2ccc(-c3ncnc(Nc4ccc(N5CCN(C6COC6)CC5)cc4)n3)cc2C#N)C(F)(F)C1 (stereo partly drawn) [Example 198, 2-((4,4-difluoro-1-((S)-2-hydroxypropanoyl)pyrrolidin-3-yl)oxy)-5-(4-((4-(4-(oxetan-3-yl)piperazin-1-yl)phenyl)amino)-1,3,5-triazin-2-yl)benzonitrile]
48 | 14 | ≥ 1000 | N#Cc1cc(-c2ncnc(Nc3ccc(N4CCN(C5COC5)CC4)cc3)n2)ccc1O[C@@H]1CN(C(=O)CO)C[C@H]1F [Example 193, 2-(((3R,4R)-4-fluoro-1-(2-hydroxyacetyl)pyrrolidin-3-yl)oxy)-5-(4-((4-(4-(oxetan-3-yl)piperazin-1-yl)phenyl)amino)-1,3,5-triazin-2-yl)benzonitrile]
30 | 8 | ≥ 1000 | C[C@H]1CN(C(=O)CO)C[C@@H]1Oc1ccc(-c2ncnc(Nc3ccc(N4CCN(C5COC5)CC4)cc3)n2)cc1C#N [Example 192, 2-(((3R,4S)-1-(2-hydroxyacetyl)-4-methylpyrrolidin-3-yl)oxy)-5-(4-((4-(4-(oxetan-3-yl)piperazin-1-yl)phenyl)amino)-1,3,5-triazin-2-yl)benzonitrile]
15 | 3 | ≥ 1000 | N#Cc1cc(-c2ncnc(Nc3ccc(N4CCN(C5COC5)CC4)cc3)n2)ccc1OC1CCN(C(=O)c2ccc[nH]2)CC1 [Example 190, 2-((1-(1H-pyrrole-2-carbonyl)piperidin-4-yl)oxy)-5-(4-((4-(4-(oxetan-3-yl)piperazin-1-yl)phenyl)amino)-1,3,5-triazin-2-yl)benzonitrile]
13 | 5 | 183 | C[C@H]1C[C@@H](Oc2ccc(-c3ncnc(Nc4ccc(N5CCN(C6COC6)CC5)cc4)n3)cc2C#N)CCN1C(=O)CC#N [Example 187, 2-(((2S,4S)-1-(2-cyanoacetyl)-2-methylpiperidin-4-yl)oxy)-5-(4-((4-(4-(oxetan-3-yl)piperazin-1-yl)phenyl)amino)-1,3,5-triazin-2-yl)benzonitrile]
6 | 4 | 200 | N#Cc1cc(-c2ncnc(Nc3ccc(N4CCN(C5COC5)CC4)cc3)n2)ccc1O[C@@H]1CCC(=O)NC1 [Example 199, (R)-5-(4-((4-(4-(oxetan-3-yl)piperazin-1-yl)phenyl)amino)-1,3,5-triazin-2-yl)-2-((6-oxopiperidin-3-yl)oxy)benzonitrile]
